Results on two compounds are retold here after ChEMBL document CHEMBL1154381, “Mining biologically-active molecules for inhibitors of fatty acid amide hydrolase (FAAH): identification of phenmedipham and amperozide as FAAH inhibitors” (Bioorg Med Chem Lett, 2009).

Data set [1] has as its target T1, Fatty-acid amide hydrolase 1 (Homo sapiens, UniProt O00519).
T1 sequence (O00519 whole entry): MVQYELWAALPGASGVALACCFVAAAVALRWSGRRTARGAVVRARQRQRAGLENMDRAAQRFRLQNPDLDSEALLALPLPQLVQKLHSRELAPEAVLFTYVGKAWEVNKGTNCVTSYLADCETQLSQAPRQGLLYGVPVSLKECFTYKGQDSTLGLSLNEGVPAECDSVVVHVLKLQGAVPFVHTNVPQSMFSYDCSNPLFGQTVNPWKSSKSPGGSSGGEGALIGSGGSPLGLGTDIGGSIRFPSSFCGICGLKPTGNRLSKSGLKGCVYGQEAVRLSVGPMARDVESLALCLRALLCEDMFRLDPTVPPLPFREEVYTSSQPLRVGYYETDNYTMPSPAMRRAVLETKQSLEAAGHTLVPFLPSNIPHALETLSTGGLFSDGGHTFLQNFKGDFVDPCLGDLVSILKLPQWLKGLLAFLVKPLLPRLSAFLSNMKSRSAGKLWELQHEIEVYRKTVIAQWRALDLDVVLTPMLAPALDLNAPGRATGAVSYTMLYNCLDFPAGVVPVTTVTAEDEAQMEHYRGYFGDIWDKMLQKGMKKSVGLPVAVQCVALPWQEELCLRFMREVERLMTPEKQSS
Put plainly: Inhibition of human FAAH.

For data set [2], the target named is T1, Fatty-acid amide hydrolase 1. Put plainly: Inhibition of human FAAH-mediated hydrolysis of [3H]AEA.
In data set [3] the target is T2, Fatty-acid amide hydrolase 1 (Rattus norvegicus) (UniProt P97612).
T2 sequence (whole entry): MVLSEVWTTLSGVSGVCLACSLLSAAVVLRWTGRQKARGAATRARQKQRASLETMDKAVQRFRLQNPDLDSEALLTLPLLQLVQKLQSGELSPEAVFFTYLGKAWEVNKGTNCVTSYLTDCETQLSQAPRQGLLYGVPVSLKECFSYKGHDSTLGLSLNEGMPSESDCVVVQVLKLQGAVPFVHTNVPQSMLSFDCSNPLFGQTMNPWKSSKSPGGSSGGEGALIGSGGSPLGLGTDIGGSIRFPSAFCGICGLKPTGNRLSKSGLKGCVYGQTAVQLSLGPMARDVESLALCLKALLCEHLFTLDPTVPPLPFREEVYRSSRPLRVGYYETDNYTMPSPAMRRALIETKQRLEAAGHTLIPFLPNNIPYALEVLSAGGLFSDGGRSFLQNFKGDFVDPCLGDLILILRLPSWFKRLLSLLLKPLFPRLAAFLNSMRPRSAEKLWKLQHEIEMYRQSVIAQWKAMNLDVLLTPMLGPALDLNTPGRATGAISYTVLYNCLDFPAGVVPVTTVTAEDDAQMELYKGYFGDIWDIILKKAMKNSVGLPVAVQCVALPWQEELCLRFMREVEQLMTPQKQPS
Put plainly: Inhibition of rat FAAH at 10 uM.

Data set [4] can be described thus: Toxicity in rat. Type of data set: organism-based. Conditions: in vivo.
For data set [5], the target named is T3, Fatty-acid amide hydrolase 1 (Rattus norvegicus, UniProt P97612).
T3 sequence (P97612 whole entry): T2 sequence (whole entry)
In words: Inhibition of rat FAAH.

For orientation: IC50 means the concentration at which inhibition is half-maximal. A higher IC50 goes with weaker potency. Broadly, the inhibition is the percentage by which the read-out fell short of the control. A low value points to a weak effect. For the compound `CCNC(=O)N1CCN(CCCC(c2ccc(F)cc2)c2ccc(F)cc2)CC1` [AMPEROZIDE], the IC50 in data set [1] amounted to 1340 nM; in data set [2], 455 nM. In data set [3], this compound had an inhibition of 50%.

For orientation: LD50 means the dose at which mortality reaches 50%. A low value points to a more toxic substance. The compound `COC(=O)Nc1cccc(OC(=O)Nc2cccc(C)c2)c1` registered an LD50 in data set [4] of over 8000 mg/kg. The IC50 in data set [1] was 377 nM; in data set [2] it was 152 nM; in data set [5], 77 nM.
